Where a SMILES comes first, the peptide text is derived from it.

The nature of this data set: Solubility pre-screen of peptides. The following applies: pre-screened for solubility in an aqueous, acidic milieu; YES/NO.
Method: Methods The assay employed is a competitive MHC class II binding assay, wherein each peptide is analysed for its ability to displace a known control binder from each of the human MHC class II allotypes investigated.
Also shown is the solubility status of the peptide at the highest concentrations in the aqueous solution of the binding assay. The value illustrates the lowest concentration at which an insoluble white precipitate is seen.
Consider `CC[C@H](C)[C@H](NC(=O)[C@H](C)NC(=O)[C@H](C)NC(=O)[C@@H](NC(=O)[C@H](C)NC(=O)[C@H](CCC(=O)O)NC(=O)[C@H](CC(=O)O)NC(=O)[C@@H](NC(=O)[C@H](C)NC(=O)[C@@H](N)CCCCN)C(C)C)C(C)C)C(=O)N[C@@H](CCC(=O)O)C(=O)N[C@@H](CCCCN)C(=O)N[C@@H](CO)C(=O)O` [HDM28] (H-KAVDEAVAAIEKS-OH; N-terminus and C-terminus assumed), for which the Solubility test result is reported as “YES”.
The entry for `CSCC[C@H](NC(=O)[C@@H]1CCCN1C(=O)[C@H](CC(=O)O)NC(=O)[C@H](Cc1ccccc1)NC(=O)[C@@H](NC(=O)[C@@H](N)CCC(=O)O)[C@@H](C)O)C(=O)N[C@@H](CCCCN)C(=O)N[C@H](C(=O)N1CCC[C@H]1C(=O)N[C@@H](CC(=O)O)C(=O)N[C@@H](Cc1c[nH]cn1)C(=O)N[C@@H](CO)C(=O)N[C@@H](CC(=O)O)C(=O)N[C@@H](CCCCN)C(=O)O)C(C)C` [HDM29A] (H-ETFDPMKVPDHSDK-OH; N-terminus and C-terminus assumed) is “YES”; for `CSCC[C@H](NC(=O)[C@@H]1CCCN1C(=O)[C@H](CC(=O)O)NC(=O)[C@H](Cc1ccccc1)NC(=O)[C@@H](NC(=O)[C@H](CCC(=O)O)NC(=O)[C@H](CO)NC(=O)[C@@H](N)CCCCN)[C@@H](C)O)C(=O)N[C@@H](CCCCN)C(=O)N[C@H](C(=O)N1CCC[C@H]1C(=O)N[C@@H](CC(=O)O)C(=O)N[C@@H](Cc1c[nH]cn1)C(=O)N[C@@H](CO)C(=O)N[C@@H](CC(=O)O)C(=O)O)C(C)C` [HDM29B] (H-KSETFDPMKVPDHSD-OH; N-terminus and C-terminus assumed) it is “YES”.
Then `CSCC[C@H](NC(=O)[C@@H]1CCCN1C(=O)[C@H](CC(=O)O)NC(=O)[C@H](Cc1ccccc1)NC(=O)[C@@H](NC(=O)[C@@H](N)CCC(=O)O)[C@@H](C)O)C(=O)N[C@@H](CCCCN)C(=O)N[C@H](C(=O)N1CCC[C@H]1C(=O)N[C@@H](CC(=O)O)C(=O)N[C@@H](Cc1c[nH]cn1)C(=O)N[C@@H](CO)C(=O)N[C@@H](CC(=O)O)C(=O)O)C(C)C` [HDM29] (H-ETFDPMKVPDHSD-OH; N-terminus and C-terminus assumed), with “YES”; and `CC[C@H](C)[C@H](NC(=O)CNC(=O)[C@@H](NC(=O)[C@H](Cc1c[nH]cn1)NC(=O)[C@H](CCCNC(=N)N)NC(=O)[C@H](CCC(=O)O)NC(=O)[C@H](Cc1ccccc1)NC(=O)[C@H](CCCCN)NC(=O)[C@@H](N)CC(=O)O)[C@@H](C)CC)C(=O)N[C@H](C(=O)N[C@@H](CC(=O)O)C(=O)N[C@@H](CC(C)C)C(=O)N[C@@H](CCCCN)C(=O)O)[C@@H](C)CC` [HDM30] (H-DKFERHIGIIDLK-OH; N-terminus and C-terminus assumed), with “YES”; and `CC[C@H](C)[C@H](NC(=O)CNC(=O)[C@@H](NC(=O)[C@@H](N)Cc1c[nH]cn1)[C@@H](C)CC)C(=O)N[C@H](C(=O)N[C@@H](CC(=O)O)C(=O)N[C@@H](CC(C)C)C(=O)N[C@@H](CCCCN)C(=O)NCC(=O)N[C@@H](CCC(=O)O)C(=O)N[C@@H](CC(C)C)C(=O)N[C@@H](CC(=O)O)C(=O)N[C@@H](CCSC)C(=O)N[C@@H](CCCNC(=N)N)C(=O)N[C@@H](CC(N)=O)C(=O)O)[C@@H](C)CC` [HDM31A] (H-HIGIIDLKGELDMRN-OH; N-terminus and C-terminus assumed), with “YES”.
For the molecule `CC[C@H](C)[C@H](N)C(=O)N[C@@H](CC(=O)O)C(=O)N[C@@H](CC(C)C)C(=O)N[C@@H](CCCCN)C(=O)NCC(=O)N[C@@H](CCC(=O)O)C(=O)N[C@@H](CC(C)C)C(=O)N[C@@H](CC(=O)O)C(=O)N[C@@H](CCSC)C(=O)N[C@@H](CCCNC(=N)N)C(=O)N[C@@H](CC(N)=O)C(=O)N[C@H](C(=O)N[C@@H](CCC(N)=O)C(=O)N[C@H](C(=O)N[C@@H](CCCNC(=N)N)C(=O)O)C(C)C)[C@@H](C)CC` [HDM32A] (H-IDLKGELDMRNIQVR-OH; N-terminus and C-terminus assumed), the Solubility test entry is “YES”.
Turning to `CC[C@H](C)[C@H](N)C(=O)N[C@@H](CC(=O)O)C(=O)N[C@@H](CC(C)C)C(=O)N[C@@H](CCCCN)C(=O)NCC(=O)N[C@@H](CCC(=O)O)C(=O)N[C@@H](CC(C)C)C(=O)N[C@@H](CC(=O)O)C(=O)N[C@@H](CCSC)C(=O)N[C@@H](CCCNC(=N)N)C(=O)N[C@@H](CC(N)=O)C(=O)N[C@H](C(=O)N[C@@H](CCC(N)=O)C(=O)O)[C@@H](C)CC` [HDM32] (H-IDLKGELDMRNIQ-OH; N-terminus and C-terminus assumed), the Solubility test entry is “YES”.
For the molecule `CC[C@H](C)[C@H](NC(=O)[C@H](CC(N)=O)NC(=O)[C@H](CCCNC(=N)N)NC(=O)[C@H](CCSC)NC(=O)[C@H](CC(=O)O)NC(=O)[C@@H](N)CC(C)C)C(=O)N[C@@H](CCC(N)=O)C(=O)N[C@H](C(=O)N[C@@H](CCCNC(=N)N)C(=O)NCC(=O)N[C@@H](CC(C)C)C(=O)N[C@@H](CCCCN)C(=O)N[C@@H](CCC(N)=O)C(=O)O)C(C)C` [HDM33] (H-LDMRNIQVRGLKQ-OH; N-terminus and C-terminus assumed), the Solubility test result is given as “YES”.
On to `CC[C@H](C)[C@H](NC(=O)[C@H](CC(N)=O)NC(=O)[C@@H](N)CCCNC(=N)N)C(=O)N[C@@H](CCC(N)=O)C(=O)N[C@H](C(=O)N[C@@H](CCCNC(=N)N)C(=O)NCC(=O)N[C@@H](CC(C)C)C(=O)N[C@@H](CCCCN)C(=O)N[C@@H](CCC(N)=O)C(=O)N[C@@H](CCSC)C(=O)N[C@@H](CCCCN)C(=O)N[C@@H](CCCNC(=N)N)C(=O)N[C@H](C(=O)NCC(=O)O)C(C)C)C(C)C` [HDM34] (H-RNIQVRGLKQMKRVG-OH; N-terminus and C-terminus assumed), for which the Solubility test entry is on record as “YES”.
Regarding `CSCC[C@H](NC(=O)[C@H](CCC(N)=O)NC(=O)[C@H](CCCCN)NC(=O)[C@H](CC(C)C)NC(=O)CNC(=O)[C@@H](N)CCCNC(=N)N)C(=O)N[C@@H](CCCCN)C(=O)N[C@@H](CCCNC(=N)N)C(=O)N[C@H](C(=O)NCC(=O)N[C@@H](CC(=O)O)C(=O)N[C@@H](C)C(=O)N[C@@H](CC(N)=O)C(=O)O)C(C)C` [HDM35] (H-RGLKQMKRVGDAN-OH; N-terminus and C-terminus assumed), the Solubility test entry is “YES”.
Take `CC(C)[C@H](NC(=O)[C@H](CCCNC(=N)N)NC(=O)[C@@H](N)CCCCN)C(=O)NCC(=O)N[C@@H](CC(=O)O)C(=O)N[C@@H](C)C(=O)N[C@@H](CC(N)=O)C(=O)N[C@H](C(=O)N[C@@H](CCCCN)C(=O)N[C@@H](CO)C(=O)N[C@@H](CCC(=O)O)C(=O)N[C@@H](CC(=O)O)C(=O)NCC(=O)O)C(C)C` [HDM36] (H-KRVGDANVKSEDG-OH; N-terminus and C-terminus assumed): the Solubility test entry is given as “YES”.
Turning to `CC(C)[C@H](NC(=O)CNC(=O)[C@H](CC(=O)O)NC(=O)[C@H](CCC(=O)O)NC(=O)[C@H](CO)NC(=O)[C@H](CCCCN)NC(=O)[C@@H](NC(=O)[C@H](CC(N)=O)NC(=O)[C@H](C)N)C(C)C)C(=O)N[C@H](C(=O)N[C@@H](CCCCN)C(=O)N[C@@H](C)C(=O)N[C@@H](Cc1c[nH]cn1)C(=O)O)C(C)C` [HDM37] (H-ANVKSEDGVVKAH-OH; N-terminus and C-terminus assumed), the Solubility test entry is given as “YES”.
